Measurements as given in PMC6271254, “Antibacterial and EGFR-Tyrosine Kinase Inhibitory Activities of Polyhydroxylated Xanthones from Garcinia succifolia” (Molecules, 2014).

Target: epidermal growth factor receptor (EGFR) tyrosine kinase (Homo sapiens, UniProt P00533)
Assay: fluorescence tyrosine kinase assay (Antibody Beacon detection), dose-response
Format: biochemical

Chain of epidermal growth factor receptor (EGFR) tyrosine kinase (P00533 25-1210): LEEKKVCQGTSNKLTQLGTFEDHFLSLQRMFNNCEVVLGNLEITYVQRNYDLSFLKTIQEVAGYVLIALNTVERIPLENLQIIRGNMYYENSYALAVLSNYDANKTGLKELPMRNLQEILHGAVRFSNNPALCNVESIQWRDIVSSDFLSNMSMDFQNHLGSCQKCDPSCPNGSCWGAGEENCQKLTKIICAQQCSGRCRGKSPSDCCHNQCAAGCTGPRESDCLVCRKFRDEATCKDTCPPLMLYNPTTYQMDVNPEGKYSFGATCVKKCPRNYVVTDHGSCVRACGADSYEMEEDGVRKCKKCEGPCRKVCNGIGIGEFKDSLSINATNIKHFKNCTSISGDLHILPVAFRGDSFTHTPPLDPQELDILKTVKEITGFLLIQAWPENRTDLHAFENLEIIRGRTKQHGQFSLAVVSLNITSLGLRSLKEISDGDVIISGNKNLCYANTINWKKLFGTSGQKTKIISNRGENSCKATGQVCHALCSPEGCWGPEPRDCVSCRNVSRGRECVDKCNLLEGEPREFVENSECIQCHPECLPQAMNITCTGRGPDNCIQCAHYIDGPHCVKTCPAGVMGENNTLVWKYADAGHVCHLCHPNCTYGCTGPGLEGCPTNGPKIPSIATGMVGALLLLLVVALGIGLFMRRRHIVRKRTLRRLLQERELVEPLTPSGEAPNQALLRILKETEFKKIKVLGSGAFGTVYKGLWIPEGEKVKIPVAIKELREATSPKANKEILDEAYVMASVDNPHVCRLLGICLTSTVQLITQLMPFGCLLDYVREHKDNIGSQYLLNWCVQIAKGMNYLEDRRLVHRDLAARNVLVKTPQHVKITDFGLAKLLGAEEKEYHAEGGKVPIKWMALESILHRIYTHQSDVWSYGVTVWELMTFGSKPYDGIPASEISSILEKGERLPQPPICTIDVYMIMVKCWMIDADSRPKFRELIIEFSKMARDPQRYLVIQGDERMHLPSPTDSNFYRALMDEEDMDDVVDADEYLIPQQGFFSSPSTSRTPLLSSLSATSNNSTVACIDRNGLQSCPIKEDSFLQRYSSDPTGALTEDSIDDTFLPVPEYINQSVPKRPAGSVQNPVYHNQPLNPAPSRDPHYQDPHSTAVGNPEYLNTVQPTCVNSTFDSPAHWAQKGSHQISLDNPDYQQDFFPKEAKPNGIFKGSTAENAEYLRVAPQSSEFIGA

Row | IC50 [nM] | Compound
1 | 90.3 | O=c1c2cccc(O)c2oc2cccc(O)c12 [compound 1, 1,5-dihydroxyxanthone]
2 | 223 | O=c1c2cc(O)ccc2oc2cccc(O)c12 [compound 2, 1,7-dihydroxyxanthone]
